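Exposure lasted 48 hours, with cells grown in 96-well plates and compounds tested at five concentrations. GI50: concentration for 50% inhibition of growth.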 Calls of active or inactive are those of the source. Rule as the data show it: active = GI50 up to about 1.1 µM and inactive = higher.
Key:
Assay in all cases: growth of human tumour cells (NCI), 48 h
SK-MEL-28 = tested on: SK-MEL-28
MOLT-4 = tested on: MOLT-4
OVCAR-3 = tested on: OVCAR-3
EKVX = tested on: EKVX
SN12C = tested on: SN12C
UO-31 = tested on: UO-31
ACHN = tested on: ACHN
SF-268 = tested on: SF-268
DLD-1 = tested on: DLD-1
HCC 2998 = tested on: HCC 2998
IGROV-1 = tested on: IGROV-1
DMS-273 = tested on: DMS-273
HCT-15 = tested on: HCT-15
SNB-78 = tested on: SNB-78
A549 = tested on: A549
OVCAR-8 = tested on: OVCAR-8
DMS-114 = tested on: DMS-114
COLO 205 = tested on: COLO 205
HL-60 = tested on: HL-60
SK-OV-3 = tested on: SK-OV-3

Structure (SMILES)	GI50 (SK-MEL-28)	GI50 (MOLT-4)	GI50 (OVCAR-3)	GI50 (EKVX)	GI50 (SN12C)	GI50 (UO-31)	GI50 (ACHN)	GI50 (SF-268)	GI50 (DLD-1)	GI50 (HCC 2998)	GI50 (IGROV-1)	GI50 (DMS-273)	GI50 (HCT-15) [µM]	GI50 (SNB-78)	GI50 (A549)	GI50 (OVCAR-8)	GI50 (DMS-114)	GI50 (COLO 205)	GI50 (HL-60)	GI50 (SK-OV-3)
O=C1C(Cl)=C(Cl)C(=O)N1c1ccccc1Cl	> 100 µM (inactive)	30.9 µM (inactive)	99.3 µM (inactive)	> 100 µM (inactive)	> 100 µM (inactive)	> 100 µM (inactive)	> 100 µM (inactive)	> 100 µM (inactive)	> 52.2 µM (inactive)	> 100 µM (inactive)	> 100 µM (inactive)	> 100 µM (inactive)	> 53.6	> 100 µM (inactive)	> 100 µM (inactive)	> 100 µM (inactive)	> 95.1 µM (inactive)	> 63.7 µM (inactive)	15.3 µM (inactive)	> 100 µM (inactive)
O=C1C=C/C(=N\c2ccc3c(c2)C(Br)c2ccccc2-3)O1 (configuration not stated)	> 100 µM (inactive)	26.8 µM (inactive)	> 100 µM (inactive)	52 µM (inactive)	21.5 µM (inactive)	> 100 µM (inactive)	> 100 µM (inactive)	> 100 µM (inactive)	> 100 µM (inactive)	> 100 µM (inactive)	> 100 µM (inactive)	> 10 µM (inactive)	> 100	> 100 µM (inactive)	> 100 µM (inactive)	72.6 µM (inactive)	92.7 µM (inactive)	> 100 µM (inactive)	10.2 µM (inactive)	> 100 µM (inactive)
O=[N+]([O-])c1cc(/C=N\NS(=O)(=O)c2ccc(Cl)cc2)c(O)c([N+](=O)[O-])c1	93.3 µM (inactive)	29.2 µM (inactive)	24.4 µM (inactive)	> 100 µM (inactive)	25.6 µM (inactive)	71.4 µM (inactive)	49.8 µM (inactive)	38 µM (inactive)	72.8 µM (inactive)	85.7 µM (inactive)	74.8 µM (inactive)	26.5 µM (inactive)	21.4	38.1 µM (inactive)	37.8 µM (inactive)	23 µM (inactive)	31.9 µM (inactive)	16.1 µM (inactive)	26.7 µM (inactive)	31.3 µM (inactive)
C[C@@]1(CBr)C[C@@](C)(/C=C/Cl)[C@@H](Cl)C[C@H]1Cl	17.5 µM (inactive)	4.03 µM (inactive)	10.8 µM (inactive)	18.1 µM (inactive)	11.7 µM (inactive)	15.6 µM (inactive)	12.7 µM (inactive)	15.9 µM (inactive)	13.6 µM (inactive)	16.1 µM (inactive)	14.8 µM (inactive)	10.8 µM (inactive)		2.94 µM (inactive)	12.3 µM (inactive)	13.9 µM (inactive)	12.7 µM (inactive)	13.5 µM (inactive)	3.06 µM (inactive)	16 µM (inactive)
O=C(C[n+]1ccccc1)NNC(=O)/C(=C/c1ccc2c(c1)OCO2)NC(=O)c1ccccc1	> 100 µM (inactive)	30.4 µM (inactive)	29.9 µM (inactive)	> 100 µM (inactive)	> 100 µM (inactive)	> 70.8 µM (inactive)	> 100 µM (inactive)	49.1 µM (inactive)	38.2 µM (inactive)	> 100 µM (inactive)	44.7 µM (inactive)	28.3 µM (inactive)	28.6	> 56.8 µM (inactive)	> 76.4 µM (inactive)	30 µM (inactive)	25.5 µM (inactive)	> 46.1 µM (inactive)	25.2 µM (inactive)	> 100 µM (inactive)
CCn1c2c(c3ccccc31)C(c1ccccc1)CC1C(=O)N(c3ccccc3)C(=O)C21 (configuration not stated)	41.6 µM (inactive)	91.2 µM (inactive)	> 100 µM (inactive)	42.8 µM (inactive)	67.1 µM (inactive)	36.1 µM (inactive)	57.5 µM (inactive)	> 100 µM (inactive)	74 µM (inactive)	59 µM (inactive)	33 µM (inactive)	51.4 µM (inactive)	> 100	36.8 µM (inactive)	21.9 µM (inactive)	9.59 µM (inactive)	89.5 µM (inactive)	> 100 µM (inactive)	68.9 µM (inactive)	24.7 µM (inactive)
COc1cc2c(cc1OC)C1(c3ccc(Cl)cc3)ON=C(c3ccccc3)N1CS2 (configuration not stated)	> 100 µM (inactive)	11 µM (inactive)	> 100 µM (inactive)	> 100 µM (inactive)	64.7 µM (inactive)	27.1 µM (inactive)	91.8 µM (inactive)	> 100 µM (inactive)	> 100 µM (inactive)	> 100 µM (inactive)	38.7 µM (inactive)	> 100 µM (inactive)	> 100	4.56 µM (inactive)	> 100 µM (inactive)		> 100 µM (inactive)	> 100 µM (inactive)	24.2 µM (inactive)	> 100 µM (inactive)
Cc1nnc(N/N=C2\C(=O)Nc3ccccc32)n1N	> 100 µM (inactive)	> 100 µM (inactive)	> 100 µM (inactive)	> 100 µM (inactive)	> 100 µM (inactive)	> 100 µM (inactive)	> 100 µM (inactive)	> 100 µM (inactive)	> 100 µM (inactive)	> 100 µM (inactive)	> 100 µM (inactive)	> 100 µM (inactive)	> 100	> 100 µM (inactive)	> 100 µM (inactive)	> 100 µM (inactive)	> 100 µM (inactive)	67.5 µM (inactive)	25.9 µM (inactive)	> 100 µM (inactive)
CN1C(c2ccccc2)CC(=NO)CC1c1ccccc1 (configuration not stated)	91.2 µM (inactive)	19.2 µM (inactive)	39.9 µM (inactive)	> 100 µM (inactive)	24.9 µM (inactive)	26.4 µM (inactive)	41.4 µM (inactive)	55.7 µM (inactive)	41.8 µM (inactive)	97.5 µM (inactive)	> 100 µM (inactive)	28 µM (inactive)	37.9	> 100 µM (inactive)	40.9 µM (inactive)	47.4 µM (inactive)	25.7 µM (inactive)	20.2 µM (inactive)	16.4 µM (inactive)	> 100 µM (inactive)
C#CC1(O)CCC2[C@@H]3CCc4cc(Oc5nc(F)nc(-c6c7ccccc7c(SCC)n6CCC)n5)ccc4C3CC[C@@]21C (some centres not stated)	50.7 µM (inactive)	28.7 µM (inactive)	> 100 µM (inactive)	59.6 µM (inactive)		33.3 µM (inactive)	> 100 µM (inactive)	57.5 µM (inactive)	> 100 µM (inactive)	> 100 µM (inactive)	94.6 µM (inactive)	> 100 µM (inactive)	> 100	> 100 µM (inactive)	> 100 µM (inactive)	> 100 µM (inactive)	31.3 µM (inactive)	> 100 µM (inactive)	> 100 µM (inactive)	> 100 µM (inactive)
